We go through one molecule from US12466816B2, “Fused cyclic compound capable of degrading protein and use thereof” (Medshine Discovery Inc., priority 2019, dated 2025).

Molecules are shown by their SMILES.

Common to all, as to assay type: cell-based
One assay concerns Hep3B cells. Description: Sensitivity of wild-type versus CRBN KO cells to WX106 (CCK-8). To be noted: 10 μM, 72 h. How it is done:
The sgRNA sequence targeting CRBN was inserted into lenti Crispr V2 plasmid, the virus was co-packaged with the packaging vectors psPAX2 and pVSVG, and the cells were infected; screening was performed with puromycin (Invitrogen, A1113803) and the knockout of CRBN was identified by Western blot; finally, the cell growth was detected to calculate the survival rate.
WX106 (10 μM) was added to wild-type Hep3B cells and Hep3B CRBN KO (knockout) hybrid clone cells, respectively, and cell proliferation was detected by CCK-8 after 72 h.

Another assay has as its target CRBN (Homo sapiens, UniProt Q96SW2). Description: Protein degradation competition experiment (CC885-induced GSPT1 degradation). Further details: endogenous in cells; host or cells: MOLT-4. To be noted: MOLT-4 cells, co-treated with 10 nM CC885, 4 hours, Western blot. How it is done: MOLT-4 cells were co-treated with 0.1, 1 and 10 μM of WX106 and 10 nM of CC885 for 4 hours, and the protein level of GSPT1 was then detected by Western blot, with Poma (Pomalidomide, Selleck, S1567) acting as the positive control in the experiment. Cells were collected and denatured in protein loading buffer (50 mM Tris-HCL 2% SDS, 0.025% BPB, 1% β-mercaptoethanol, 10% glycerol) at 98° C. for 10 min. Proteins were separated by SDS-PAGE and transferred to a PVDF membrane (Millipore, IPVH00010), blocked with 5% skim milk (dissolved in TBST buffer), incubated with a primary antibody overnight at 4° C., and then incubated with a secondary antibody (Anti-rabbit IgG, HRP-linked Antibody, Cell Signaling, 7074S) at room temperature for 1 hour, and the bands on the membrane were detected by chemiluminescence (ECL chemiluminescence kit, Beyotime Biotechnology, P0018AM).
On the technique in general: In western blotting, separated proteins are transferred to a membrane and probed.

A further assay deals with T1, Wee1-CRBN complex (Homo sapiens, UniProt P30291+Q96SW2).
T1 construct: expressed in transfected cells; host or cells: 293T
The assay is described as follows: Co-immunoprecipitation. To be noted: 293T cells. As for the experimental part:
The plasmid was transfected into 293T cells. After 24 hours, the compound WX106 was added to treat the cells for a certain period of time. The cells were lysed with NETN lysis buffer (150 mM NaCl, 50 mM Tris-HCl of pH 8.0, 1% NP40), followed by incubation with agarose beads (EZview™ Red anti-HA affinity gel, Sigma, E6779; anti-FLAG® M2 affinity gel, Sigma, A2220) and lysis buffer for 2 hours. The beads were washed 4 times with lysis buffer, loading buffer (100 mM Tris-HCl, 4% SDS, 0.05% BPB, 2% β-mercaptoethanol, 20% glycerol) was added and detection was performed using Western blot.
According to FIG. 24, HA CRBN (CRBN was overexpressed in cells by transfection technology; HA is a polypeptide and CRBN fusion expression; CRBN refers to endogenous CRBN in cells) and FLAG Wee1 (Wee1 was overexpressed in cells by transfection technology; FLAG is a polypeptide and CRBN fusion expression; Wee1 refers to endogenous Wee1 in cells) were overexpressed in 293T cells [and left to stand] for 24 hours after transfection; thereafter, the cells were treated with 20 μM MG132 or 10 μM WX106 1 h and 2 h before they were harvested for Co-IP (co-immunoprecipitation) assay, respectively. […] According to FIG. 26, overexpressed CRBN and endogenous Wee1 were used for co-immunoprecipitation. […] According to FIG. 27, different Wee1 fragments were cloned separately and subjected to Co-IP with CRBN.

Another assay concerns the target T2, CK1α (Homo sapiens, UniProt P48729).
T2 construct: endogenous in cells; host or cells: MOLT-4
Description: Detection of protein degradation by the drug (Western blot). To be noted: MOLT-4 cells.

Another assay has as its target T3, GSPT1 (Homo sapiens, UniProt P15170).
T3 construct: endogenous in cells; host or cells: MOLT-4
The description is as above. To be noted: MOLT-4 cells.

In assay [1] the target is T4, Wee1 (Homo sapiens, UniProt P30291). The assay is described as follows: Detection of compounds that degrade Wee1 protein (Western blot). To be noted: MOLT-4 cells 10 μM 4 hours, U87-MG cells 1 μM 24 hours. On the set-up: endogenous in cells; host or cells: MOLT-4, U87-MG. As for the experimental part:
MOLT-4 cells were treated with 10 μM of the test compound for 4 hours and U87-MG cells were treated with 1 μM of the test compound for 24 hours, respectively. With GAPDH (Santa Cruz, sc-32233) as the internal reference protein, the protein level of Wee1 (Cell Signaling, 13084S) was detected using Western blot. Cells were collected, lysed with protein loading buffer (1M Tris-HCl, 10% SDS, 0.025% BPB), and denatured at 98° C. for 10 min before Western blot analysis. The main steps include: 1) Electrophoresis: The protein was separated by SDS-PAGE electrophoresis. During the electrophoresis, the voltage was adjusted to 80 v for about 30 min, and then the voltage was adjusted to 120 v until the bromophenol blue ran out of the gel. 2) Transfer to a membrane: the gel was stuck to a methanol-activated PVDF membrane using the method of wet transfer, and after the top and bottom layers were wrapped with filter paper, the membrane was placed into the gel holder cassette and fixed to the transfer tank, and transfer was performed at a constant current of 250 mA for 90 min; 3) Blocking: the PVDF membrane with trace protein was placed into the antibody incubation box, 5% skim milk was added to completely cover the PVDF membrane, and incubation was performed for 1 hour on a shaker at room temperature; 4) Incubation of the primary antibody: the primary antibody was prepared with 5% BSA (1:1000) and incubated overnight on a shaker at 4° C.; 5) Incubation of the secondary antibody: the membrane was washed thrice with TBST, the secondary antibody (prepared with 5% skim milk) was added (according to the species source of the primary antibody, different secondary antibodies with a dilution range of 1:3000-1:10000 were used), and incubation was performed on a shaker at room temperature for one hour; 5) Exposure: the membrane was washed thrice with TBST and the bands on the membrane were detected by chemiluminescence.

Assay [2] addresses T4, Wee1. The assay is described as follows: CRBN-dependent ubiquitin-mediated degradation of Wee1 (wild-type versus CRBN KO cells, Western blot). Further details: endogenous in cells; host or cells: U87-MG. How it is done:
293T cells and 293T CRBN KO cells were treated with DMSO, 1 μM WX106, 10 μM WX106 alone or in combination with 10 μM MG132 for 16 h, the whole-cell lysates were collected, and Wee1 protein expression was detected using Western blot. […] U87-MG cells and U87-MG CRBN KO cells were treated with 10 μM WX106 or WX106 plus 10 μM MG132 for 16 h, and the level of Wee1 protein expression was detected using Western blot.

Take `Cc1ccc(C(=O)Nc2ccc3occ(C4CCC(=O)NC4=O)c3c2)cc1Cl` (centres unmarked) [WX106]: the “sensitivity of cells to WX106 after CRBN knockout” value in the assay with Hep3B cells was “significantly reduced”. For the same molecule, the “effect on degradation of GSPT1 induced by CC885” value at CRBN is recorded as “reversed”. In addition, the “complex formed by Wee1 and CRBN (HA CRBN and FLAG Wee1 overexpressed)” value on Wee1-CRBN complex (10 μM WX106, 20 μM MG132, FIG. 24) is recorded as “significantly increased”. At Wee1-CRBN complex (FIG. 26), the “complex formed by Wee1 and CRBN (overexpressed CRBN and endogenous Wee1)” value is given as “significantly increased”. Further, the “pro-degradation effect on CK1α” value on CK1α is “no significant pro-degradation effect”. Also, the “pro-degradation effect on GSPT1” value on GSPT1 was “no significant pro-degradation effect”. Also, the “pro-degradation effect on Wee1” value on Wee1 [1] is given as “pro-degradation effect on Wee1”. The “relative strength of the pro-degradation effect on Wee1” value at Wee1 [1] (among tested compounds) is reported as “the strongest”. The “level of Wee1 expression in CRBN-deficient cells” value at Wee1 [2] (293T CRBN KO cells, 1 μM or 10 μM, 16 h) is listed as “no significant change”. Also, the “Wee1 degradation in wild-type cells” value on Wee1 [2] (293T cells, 1 μM or 10 μM, 16 h) is “promoted Wee1 degradation”. Further, the “pro-degradation effect on Wee1 when MG132 was added” value on Wee1 [2] (wild-type 293T cells, with 10 μM MG132, 16 h) is given as “absent”.
